The text below walks through data of patent publication US20240239861A1, “GLUCAGON-RECEPTOR SELECTIVE POLYPEPTIDES AND METHODS OF USE THEREOF” (i2O Therapeutics, Inc., priority 2016, published 2024).

One experiment has as its target human GLP-1R (Homo sapiens, UniProt P43220). In words: Peptide-receptor mediated cAMP accumulation (LANCE Ultra cAMP) in CHO-K1 cells transfected with human GLP-1R. The experiment is classed as cell-based. Conditions: hGLP1 pEC50 (cAMP mean (n = 3): 11 point curve starting at 1 nM, Table 3).
The next experiment concerns the target human GCGR (Homo sapiens, UniProt P47871). In words: Peptide-receptor mediated cAMP accumulation (LANCE Ultra cAMP) in CHO-K1 cells transfected with human GCGR. It counts as cell-based. Conditions: Table 3.

Structures are written as SMILES. Where a SMILES comes first, the peptide text is derived from it. [ ]: non-standard residue; d: D form. Aib = CC(C)(N)C(=O)O A value given as a limit tells only on which side of the number the result lay.

human GCGR, sequence (P47871 26-477): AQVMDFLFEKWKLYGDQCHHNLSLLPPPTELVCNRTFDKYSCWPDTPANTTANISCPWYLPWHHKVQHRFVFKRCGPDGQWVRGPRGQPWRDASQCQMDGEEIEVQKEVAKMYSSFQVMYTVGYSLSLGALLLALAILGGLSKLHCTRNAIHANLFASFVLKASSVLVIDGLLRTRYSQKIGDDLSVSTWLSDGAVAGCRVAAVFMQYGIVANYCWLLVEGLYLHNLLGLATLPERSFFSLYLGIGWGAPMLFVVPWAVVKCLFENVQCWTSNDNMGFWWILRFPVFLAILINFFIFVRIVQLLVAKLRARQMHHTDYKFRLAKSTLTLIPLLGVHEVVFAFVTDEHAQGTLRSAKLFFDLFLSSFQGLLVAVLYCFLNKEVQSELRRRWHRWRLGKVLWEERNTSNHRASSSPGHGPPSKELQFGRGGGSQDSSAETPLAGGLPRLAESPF
human GLP-1R, sequence (P43220 24-463): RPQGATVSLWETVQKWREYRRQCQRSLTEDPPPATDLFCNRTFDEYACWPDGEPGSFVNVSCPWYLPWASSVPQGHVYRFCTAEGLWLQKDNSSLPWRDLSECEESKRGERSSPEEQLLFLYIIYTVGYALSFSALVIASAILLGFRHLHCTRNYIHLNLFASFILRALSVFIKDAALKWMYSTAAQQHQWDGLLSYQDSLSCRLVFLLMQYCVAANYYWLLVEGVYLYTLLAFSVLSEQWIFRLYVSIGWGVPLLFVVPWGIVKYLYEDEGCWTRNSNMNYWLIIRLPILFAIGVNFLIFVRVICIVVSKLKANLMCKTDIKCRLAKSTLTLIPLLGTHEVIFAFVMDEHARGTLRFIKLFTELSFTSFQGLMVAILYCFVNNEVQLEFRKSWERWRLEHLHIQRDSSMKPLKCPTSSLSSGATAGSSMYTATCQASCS

One may read the EC50 as the concentration giving half of the maximal effect. Higher therefore signals a less potent agent. For `CC(C)C[C@H](NC(=O)[C@H](Cc1ccc(O)cc1)NC(=O)[C@H](CCCCN)NC(=O)[C@H](CO)NC(=O)[C@H](Cc1ccc(O)cc1)NC(=O)[C@H](CC(=O)O)NC(=O)[C@H](CO)NC(=O)[C@@H](NC(=O)[C@H](Cc1ccccc1)NC(=O)[C@@H](NC(=O)CNC(=O)[C@H](Cc1c[nH]cn1)NC(=O)[C@H](CO)NC(=O)[C@@H](N)Cc1ccc(O)cc1)[C@@H](C)O)[C@@H](C)O)C(=O)N[C@@H](CC(=O)O)C(=O)NC(C)(C)C(=O)N[C@@H](CCCCN)C(=O)N[C@@H](CCCNC(=N)N)C(=O)N[C@@H](C)C(=O)N[C@@H](CCC(N)=O)C(=O)N[C@@H](CCC(=O)O)C(=O)N[C@@H](Cc1ccccc1)C(=O)N[C@H](C(=O)NC(C)(C)C(=O)N[C@@H](Cc1c[nH]c2ccccc12)C(=O)N[C@@H](CC(C)C)C(=O)N[C@@H](CCC(=O)O)C(=O)N[C@@H](CC(=O)O)C(=O)N[C@@H](CCC(=O)O)C(=O)N[C@@H](CCC(=O)O)C(=O)N1CCC[C@H]1C(=O)N[C@@H](CO)C(=O)N[C@@H](CO)C(=O)NCC(=O)N[C@@H](C)C(=O)N1CCC[C@H]1C(=O)N1CCC[C@H]1C(=O)N1CCC[C@H]1C(=O)N[C@@H](CO)C(=O)O)C(C)C` [Compound A10] (H-YSHGTFTSDYSKYLD[Aib]KRAQEFV[Aib]WLEDEEPSSGAPPPS-OH; N-terminus assumed), the EC50 on human GLP-1R was > 1000 pM; at human GCGR, 5.01 pM.

`CC(C)C[C@H](NC(=O)[C@H](Cc1ccc(O)cc1)NC(=O)[C@H](CCCCN)NC(=O)[C@H](CO)NC(=O)[C@H](Cc1ccc(O)cc1)NC(=O)[C@H](CC(=O)O)NC(=O)[C@H](CO)NC(=O)[C@@H](NC(=O)[C@H](Cc1ccccc1)NC(=O)[C@@H](NC(=O)CNC(=O)[C@H](Cc1c[nH]cn1)NC(=O)[C@H](CO)NC(=O)[C@@H](N)Cc1ccc(O)cc1)[C@@H](C)O)[C@@H](C)O)C(=O)N[C@@H](CC(=O)O)C(=O)NC(C)(C)C(=O)N[C@@H](CCCCN)C(=O)N[C@@H](CCCNC(=N)N)C(=O)N[C@@H](C)C(=O)N[C@@H](CCC(N)=O)C(=O)N[C@@H](CCC(=O)O)C(=O)N[C@@H](Cc1ccccc1)C(=O)N[C@H](C(=O)NC(C)(C)C(=O)N[C@@H](Cc1c[nH]c2ccccc12)C(=O)N[C@@H](CC(C)C)C(=O)N[C@@H](CCC(=O)O)C(=O)N[C@@H](CC(=O)O)C(=O)N[C@@H](CCC(=O)O)C(=O)N[C@@H](CCC(=O)O)C(=O)N[C@@H](CCC(=O)O)C(=O)N1CCC[C@H]1C(=O)N[C@@H](CO)C(=O)N[C@@H](CO)C(=O)NCC(=O)N[C@@H](C)C(=O)N1CCC[C@H]1C(=O)N1CCC[C@H]1C(=O)N1CCC[C@H]1C(=O)N[C@@H](CO)C(=O)O)C(C)C` [Compound A11] (H-YSHGTFTSDYSKYLD[Aib]KRAQEFV[Aib]WLEDEEEPSSGAPPPS-OH; N-terminus assumed): the EC50 was > 1000 pM on human GLP-1R and 6.31 pM at human GCGR.

With `CC(C)C[C@H](NC(=O)[C@H](Cc1ccc(O)cc1)NC(=O)[C@H](CCCCN)NC(=O)[C@H](CO)NC(=O)[C@H](Cc1ccc(O)cc1)NC(=O)[C@H](CC(=O)O)NC(=O)[C@H](CO)NC(=O)[C@@H](NC(=O)[C@H](Cc1ccccc1)NC(=O)[C@@H](NC(=O)CNC(=O)[C@H](Cc1c[nH]cn1)NC(=O)[C@H](CO)NC(=O)[C@@H](N)Cc1ccc(O)cc1)[C@@H](C)O)[C@@H](C)O)C(=O)N[C@@H](CC(=O)O)C(=O)NC(C)(C)C(=O)N[C@@H](CCCCN)C(=O)N[C@@H](CCCNC(=N)N)C(=O)N[C@@H](C)C(=O)N[C@@H](CCC(N)=O)C(=O)N[C@@H](CCC(=O)O)C(=O)N[C@@H](Cc1ccccc1)C(=O)N[C@H](C(=O)NC(C)(C)C(=O)N[C@@H](Cc1c[nH]c2ccccc12)C(=O)N[C@@H](CC(C)C)C(=O)N[C@@H](CCC(=O)O)C(=O)N[C@@H](CC(=O)O)C(=O)N[C@@H](CCC(=O)O)C(=O)N[C@@H](CO)C(=O)N[C@@H](CO)C(=O)NCC(=O)N[C@@H](C)C(=O)N1CCC[C@H]1C(=O)N1CCC[C@H]1C(=O)N1CCC[C@H]1C(=O)N[C@@H](CO)C(=O)O)C(C)C` [Compound A14] (H-YSHGTFTSDYSKYLD[Aib]KRAQEFV[Aib]WLEDESSGAPPPS-OH; N-terminus assumed), the results for the EC50 at human GLP-1R and on human GCGR were > 1000 pM and 1 pM, respectively.

Take `CC(C)C[C@H](NC(=O)[C@H](Cc1ccc(O)cc1)NC(=O)[C@H](CCCCN)NC(=O)[C@H](CO)NC(=O)[C@H](Cc1ccc(O)cc1)NC(=O)[C@H](CC(=O)O)NC(=O)[C@H](CO)NC(=O)[C@@H](NC(=O)[C@H](Cc1ccccc1)NC(=O)[C@@H](NC(=O)CNC(=O)[C@H](Cc1c[nH]cn1)NC(=O)[C@H](CO)NC(=O)[C@@H](N)Cc1ccc(O)cc1)[C@@H](C)O)[C@@H](C)O)C(=O)N[C@@H](CC(=O)O)C(=O)NC(C)(C)C(=O)N[C@@H](CO)C(=O)N[C@@H](CCCNC(=N)N)C(=O)N[C@@H](C)C(=O)N[C@@H](CCC(N)=O)C(=O)N[C@@H](CCC(=O)O)C(=O)N[C@@H](Cc1ccccc1)C(=O)N[C@H](C(=O)NC(C)(C)C(=O)N[C@@H](Cc1c[nH]c2ccccc12)C(=O)N[C@@H](CC(C)C)C(=O)N[C@@H](CCC(=O)O)C(=O)N[C@@H](CC(=O)O)C(=O)N[C@@H](CCC(=O)O)C(=O)N1CCC[C@H]1C(=O)N[C@@H](CO)C(=O)N[C@@H](CO)C(=O)NCC(=O)N[C@@H](C)C(=O)N1CCC[C@H]1C(=O)N1CCC[C@H]1C(=O)N1CCC[C@H]1C(=O)N[C@@H](CO)C(=O)O)C(C)C` [Compound A15] (H-YSHGTFTSDYSKYLD[Aib]SRAQEFV[Aib]WLEDEPSSGAPPPS-OH; N-terminus assumed): the 50% effective concentration (EC50) at human GLP-1R is > 1000 pM; at human GCGR, 3.98 pM.

On to `CC(C)C[C@H](NC(=O)[C@H](Cc1ccc(O)cc1)NC(=O)[C@H](CCCCN)NC(=O)[C@H](CO)NC(=O)[C@H](Cc1ccc(O)cc1)NC(=O)[C@H](CC(=O)O)NC(=O)[C@H](CO)NC(=O)[C@@H](NC(=O)[C@H](Cc1ccccc1)NC(=O)[C@@H](NC(=O)CNC(=O)[C@H](Cc1c[nH]cn1)NC(=O)[C@H](CO)NC(=O)[C@@H](N)Cc1ccc(O)cc1)[C@@H](C)O)[C@@H](C)O)C(=O)N[C@@H](CC(=O)O)C(=O)NC(C)(C)C(=O)N[C@H](C(=O)N[C@@H](CCCNC(=N)N)C(=O)N[C@@H](C)C(=O)N[C@@H](CCC(N)=O)C(=O)N[C@@H](CCC(=O)O)C(=O)N[C@@H](Cc1ccccc1)C(=O)N[C@H](C(=O)NC(C)(C)C(=O)N[C@@H](Cc1c[nH]c2ccccc12)C(=O)N[C@@H](CC(C)C)C(=O)N[C@@H](CCC(=O)O)C(=O)N[C@@H](CC(=O)O)C(=O)N[C@@H](CCC(=O)O)C(=O)N1CCC[C@H]1C(=O)N[C@@H](CO)C(=O)N[C@@H](CO)C(=O)NCC(=O)N[C@@H](C)C(=O)N1CCC[C@H]1C(=O)N1CCC[C@H]1C(=O)N1CCC[C@H]1C(=O)N[C@@H](CO)C(=O)O)C(C)C)[C@@H](C)O` [Compound A16] (H-YSHGTFTSDYSKYLD[Aib]TRAQEFV[Aib]WLEDEPSSGAPPPS-OH; N-terminus assumed), for which the figures for the EC50 at human GLP-1R and on human GCGR were > 1000 pM and 1.26 pM, respectively.

In the case of `CC(C)C[C@H](NC(=O)[C@H](Cc1ccc(O)cc1)NC(=O)[C@H](CCCCN)NC(=O)[C@H](CO)NC(=O)[C@H](Cc1ccc(O)cc1)NC(=O)[C@H](CC(=O)O)NC(=O)[C@H](CO)NC(=O)[C@@H](NC(=O)[C@H](Cc1ccccc1)NC(=O)[C@@H](NC(=O)CNC(=O)[C@H](Cc1c[nH]cn1)NC(=O)[C@H](CO)NC(=O)[C@@H](N)Cc1ccc(O)cc1)[C@@H](C)O)[C@@H](C)O)C(=O)N[C@@H](CC(=O)O)C(=O)NC(C)(C)C(=O)N[C@@H](CCC(=O)O)C(=O)N[C@@H](CCCNC(=N)N)C(=O)N[C@@H](C)C(=O)N[C@@H](CCC(N)=O)C(=O)N[C@@H](CCC(=O)O)C(=O)N[C@@H](Cc1ccccc1)C(=O)N[C@H](C(=O)NC(C)(C)C(=O)N[C@@H](Cc1c[nH]c2ccccc12)C(=O)N[C@@H](CC(C)C)C(=O)N[C@@H](CCC(=O)O)C(=O)N[C@@H](CC(=O)O)C(=O)N[C@@H](CCC(=O)O)C(=O)N1CCC[C@H]1C(=O)N[C@@H](CO)C(=O)N[C@@H](CO)C(=O)NCC(=O)N[C@@H](C)C(=O)N1CCC[C@H]1C(=O)N1CCC[C@H]1C(=O)N1CCC[C@H]1C(=O)N[C@@H](CO)C(=O)O)C(C)C` [Compound A17] (H-YSHGTFTSDYSKYLD[Aib]ERAQEFV[Aib]WLEDEPSSGAPPPS-OH), the EC50 is > 1000 pM at human GLP-1R and 7.94 pM on human GCGR.

For the compound `CC(C)C[C@H](NC(=O)[C@H](Cc1c[nH]c2ccccc12)NC(=O)[C@H](CCCCN)NC(=O)[C@H](CO)NC(=O)[C@H](Cc1ccc(O)cc1)NC(=O)[C@H](CC(=O)O)NC(=O)[C@H](CO)NC(=O)[C@@H](NC(=O)[C@H](Cc1ccccc1)NC(=O)[C@@H](NC(=O)CNC(=O)[C@H](Cc1c[nH]cn1)NC(=O)[C@H](CO)NC(=O)[C@@H](N)Cc1ccc(O)cc1)[C@@H](C)O)[C@@H](C)O)C(=O)N[C@@H](CC(=O)O)C(=O)NC(C)(C)C(=O)N[C@@H](CO)C(=O)N[C@@H](CCCNC(=N)N)C(=O)N[C@@H](C)C(=O)N[C@@H](CCC(N)=O)C(=O)N[C@@H](CCC(=O)O)C(=O)N[C@@H](Cc1ccccc1)C(=O)N[C@H](C(=O)NC(C)(C)C(=O)N[C@@H](Cc1c[nH]c2ccccc12)C(=O)N[C@@H](CC(C)C)C(=O)N[C@@H](CCC(=O)O)C(=O)N[C@@H](CC(=O)O)C(=O)N[C@@H](CCC(=O)O)C(=O)N1CCC[C@H]1C(=O)N[C@@H](CO)C(=O)N[C@@H](CO)C(=O)NCC(=O)N[C@@H](C)C(=O)N1CCC[C@H]1C(=O)N1CCC[C@H]1C(=O)N1CCC[C@H]1C(=O)N[C@@H](CO)C(=O)O)C(C)C` [Compound A19] (H-YSHGTFTSDYSKWLD[Aib]SRAQEFV[Aib]WLEDEPSSGAPPPS-OH; N-terminus assumed), the EC50 is > 1000 pM on human GLP-1R and 10 pM on human GCGR.
